# Results: article PMC7411887, “New Paracyclophanylthiazoles with Anti-Leukemia Activity: Design, Synthesis, Molecular Docking, and Mechanistic Studies” (Molecules, 2020)
# What was measured:
# leukemia SR = assay: MTT antiproliferative assay; details: Homo sapiens, read-out: Cytotoxicity IC50 L.SR
# UACC-62 = assay: NCI single-dose screen (SRB); format: cell-based; details: Homo sapiens; Melanoma UACC-62; 10^−5 M; read-out: Growth inhibition percentage
# Experimental: (§1) The methodology of the NCI anticancer screening was described in detail elsewhere (http://www.dtp.nci.nih.gov). […] Tested compounds were added to the culture at a single concentration (10^−5 M) and the cultures were incubated for 48 h. End-point determinations were made with a protein binding dye, SRB. Results for each tested compound were reported as the percentage growth of the treated cells when compared to the untreated control cells. The percentage growth was evaluated spectrophotometrically versus controls not treated with test agents. All experiments were repeated three times (Table 1).
# (§2) Briefly, the protocol was performed on 60 human tumor cell lines derived from different nine neoplastic diseases. […] If the results obtained met selection criteria, then the compound was tested again on all 60 cell lines in 5× 10-fold dilutions with the top dose being 10^−4 M or 150 μg/mL. Detailed methods are described in the Supplementary Materials related to this article.
# (§3) on their site (http://www.dtp.nci.nih.gov). But briefly, the protocol performed at sixty human
# (§4) National Cancer Institute, Bethesda, USA. If the results obtained meet selection criteria, then the
# (§5) 10-4 molar or 150 μg/mL. […]
# SF-268 = assay: NCI single-dose screen (SRB); format: cell-based; details: Homo sapiens; CNS Cancer SF-268; 10^−5 M; read-out: Growth inhibition percentage
# Experimental: as §1, §2, §3, §4, §5
# MDA-MB-468 = assay: NCI single-dose screen (SRB); format: cell-based; details: Homo sapiens; Breast Cancer MDA-MB-468; 10^−5 M; read-out: Growth inhibition percentage
# Experimental: as §1, §2, §3, §4, §5
# BT-549 = assay: NCI single-dose screen (SRB); format: cell-based; details: Homo sapiens; Breast Cancer BT-549; 10^−5 M; read-out: Growth inhibition percentage
# Experimental: as §1, §2, §3, §4, §5
# 786-0 = assay: NCI single-dose screen (SRB); format: cell-based; details: Homo sapiens; Renal Cancer 786-0; 10^−5 M; read-out: Growth inhibition percentage
# Experimental: as §1, §2, §3, §4, §5
# NCI-H322M = assay: NCI single-dose screen (SRB); format: cell-based; details: Homo sapiens; Non-Small-Cell Lung Cancer NCI-H322M; 10^−5 M; read-out: Growth inhibition percentage
# Experimental: as §1, §2, §3, §4, §5
# DU-145 = assay: NCI single-dose screen (SRB); format: cell-based; details: Homo sapiens; Prostate Cancer DU-145; 10^−5 M; read-out: Growth inhibition percentage
# Experimental: as §1, §2, §3, §4, §5
# RPMI-8226 = assay: NCI single-dose screen (SRB); format: cell-based; details: Homo sapiens; Leukemia RPMI-8226; 10^−5 M; read-out: Growth inhibition percentage
# Experimental: as §1, §2, §3, §4, §5
# EKVX = assay: NCI single-dose screen (SRB); format: cell-based; details: Homo sapiens; Non-Small-Cell Lung Cancer EKVX; 10^−5 M; read-out: Growth inhibition percentage
# Experimental: as §1, §2, §3, §4, §5
# UACC-257 = assay: NCI single-dose screen (SRB); format: cell-based; details: Homo sapiens; Melanoma UACC-257; 10^−5 M; read-out: Growth inhibition percentage
# Experimental: as §1, §2, §3, §4, §5
# NCI-H226 = assay: NCI single-dose screen (SRB); format: cell-based; details: Homo sapiens; Non-Small-Cell Lung Cancer NCI-H226; 10^−5 M; read-out: Growth inhibition percentage
# Experimental: as §1, §2, §3, §4, §5
# MDA-MB-435 = assay: NCI single-dose screen (SRB); format: cell-based; details: Homo sapiens; Melanoma MDA-MB-435; 10^−5 M; read-out: Growth inhibition percentage
# Experimental: as §1, §2, §3, §4, §5
# UO-31 = assay: NCI single-dose screen (SRB); format: cell-based; details: Homo sapiens; Renal Cancer UO-31; 10^−5 M; read-out: Growth inhibition percentage
# Experimental: as §1, §2, §3, §4, §5
# COLO 205 = assay: NCI single-dose screen (SRB); format: cell-based; details: Homo sapiens; Colon Cancer COLO 205; 10^−5 M; read-out: Growth inhibition percentage
# Experimental: as §1, §2, §3, §4, §5
# SF-295 = assay: NCI single-dose screen (SRB); format: cell-based; details: Homo sapiens; CNS Cancer SF-295; 10^−5 M; read-out: Growth inhibition percentage
# Experimental: as §1, §2, §3, §4, §5
# NCI-H522 = assay: NCI single-dose screen (SRB); format: cell-based; details: Homo sapiens; Non-Small-Cell Lung Cancer NCI-H522; 10^−5 M; read-out: Growth inhibition percentage
# Experimental: as §1, §2, §3, §4, §5
# SNB-19 = assay: NCI single-dose screen (SRB); format: cell-based; details: Homo sapiens; CNS Cancer SNB-19; 10^−5 M; read-out: Growth inhibition percentage
# Experimental: as §1, §2, §3, §4, §5
# SK-MEL-28 = assay: NCI single-dose screen (SRB); format: cell-based; details: Homo sapiens; Melanoma SK-MEL-28; 10^−5 M; read-out: Growth inhibition percentage
# Experimental: as §1, §2, §3, §4, §5
# A549/ATCC = assay: NCI single-dose screen (SRB); format: cell-based; details: Homo sapiens; Non-Small-Cell Lung Cancer A549/ATCC; 10^−5 M; read-out: Growth inhibition percentage
# Experimental: as §1, §2, §3, §4, §5
# HCT-15 = assay: NCI single-dose screen (SRB); format: cell-based; details: Homo sapiens; Colon Cancer HCT-15; 10^−5 M; read-out: Growth inhibition percentage
# Experimental: as §1, §2, §3, §4, §5
# SK-MEL-5 = assay: NCI single-dose screen (SRB); format: cell-based; details: Homo sapiens; Melanoma SK-MEL-5; 10^−5 M; read-out: Growth inhibition percentage
# Experimental: as §1, §2, §3, §4, §5
# SK-MEL-2 = assay: NCI single-dose screen (SRB); format: cell-based; details: Homo sapiens; Melanoma SK-MEL-2; 10^−5 M; read-out: Growth inhibition percentage
# Experimental: as §1, §2, §3, §4, §5
# HS 578T = assay: NCI single-dose screen (SRB); format: cell-based; details: Homo sapiens; Breast Cancer HS 578T; 10^−5 M; read-out: Growth inhibition percentage
# Experimental: as §1, §2, §3, §4, §5
# T-47D = assay: NCI single-dose screen (SRB); format: cell-based; details: Homo sapiens, T47D; Breast Cancer T-47D; 10^−5 M; read-out: Growth inhibition percentage
# Experimental: as §1, §2, §3, §4, §5
# HOP-62 = assay: NCI single-dose screen (SRB); format: cell-based; details: Homo sapiens; Non-Small-Cell Lung Cancer HOP-62; 10^−5 M; read-out: Growth inhibition percentage
# Experimental: as §1, §2, §3, §4, §5
# NCI-H460 = assay: NCI single-dose screen (SRB); format: cell-based; details: Homo sapiens; Non-Small-Cell Lung Cancer NCI-H460; 10^−5 M; read-out: Growth inhibition percentage
# Experimental: as §1, §2, §3, §4, §5
# OVCAR-3 = assay: NCI single-dose screen (SRB); format: cell-based; details: Homo sapiens; Ovarian Cancer OVCAR-3; 10^−5 M; read-out: Growth inhibition percentage
# Experimental: as §1, §2, §3, §4, §5
# SF-539 = assay: NCI single-dose screen (SRB); format: cell-based; details: Homo sapiens; CNS Cancer SF-539; 10^−5 M; read-out: Growth inhibition percentage
# Experimental: as §1, §2, §3, §4, §5
# SNB-75 = assay: NCI single-dose screen (SRB); format: cell-based; details: Homo sapiens; CNS Cancer SNB-75; 10^−5 M; read-out: Growth inhibition percentage
# Experimental: as §1, §2, §3, §4, §5
structure (smiles),measurement,setting,value
COC(=O)C=C1SC(=NNC(=O)c2cc3ccc2CCc2ccc(cc2)CC3)N(c2ccccc2)C1=O [Compound 3a],IC50,leukemia SR,1110 ± 68.5 nM
same,inhibition at 10 µM,UACC-62,74.8%
same,inhibition at 10 µM,SF-268,27.5%
same,inhibition at 10 µM,MDA-MB-468,100%
same,inhibition at 10 µM,BT-549,64.5%
same,inhibition at 10 µM,786-0,100%
same,inhibition at 10 µM,NCI-H322M,31.5%
same,inhibition at 10 µM,DU-145,49.1%
same,inhibition at 10 µM,RPMI-8226,121%
same,inhibition at 10 µM,EKVX,41%
same,inhibition at 10 µM,UACC-257,30.8%
same,inhibition at 10 µM,NCI-H226,26.2%
same,inhibition at 10 µM,MDA-MB-435,10.4%
same,inhibition at 10 µM,UO-31,41.5%
same,inhibition at 10 µM,COLO 205,52.3%
same,inhibition at 10 µM,SF-295,41%
same,inhibition at 10 µM,NCI-H522,58.5%
same,inhibition at 10 µM,SNB-19,60.1%
same,inhibition at 10 µM,SK-MEL-28,17.5%
same,inhibition at 10 µM,A549/ATCC,30.9%
same,inhibition at 10 µM,HCT-15,99.7%
same,inhibition at 10 µM,SK-MEL-5,30.6%
same,inhibition at 10 µM,SK-MEL-2,13%
same,inhibition at 10 µM,HS 578T,22.1%
same,inhibition at 10 µM,T-47D,138%
same,inhibition at 10 µM,HOP-62,97%
same,inhibition at 10 µM,NCI-H460,39.4%
same,inhibition at 10 µM,OVCAR-3,106%
same,inhibition at 10 µM,SF-539,122%
same,inhibition at 10 µM,SNB-75,54.3%
